In US8067393B2 (priority 2005, dated 2011):
Like-named read-outs stand apart in the source and are kept apart here.

Columns and labels:
[1] = biological target: T1, ConA (Canavalia ensiformis, UniProt P02866); assay type: binding
Procedure: A PBS-T (0.05%) solution containing glucose, maltose, GlcNAc, galactose, or lactose as a sugar chain at a concentration of 400 mM was prepared.
First, a PBS-T (0.05%) solution containing ConA or RCA120 at a concentration of 2 μM was prepared as a lectin solution, and the lectin solution was introduced to 96-well titer plate by adding 10 μl in each well. Then, a glucose solution, a maltose solution, or a GlcNAc solution was added to a ConA-added well by 20 μl in each well. A galactose solution or a lactose solution was added to a RCA120-added well by 20 μl in each well. The resulting solutions were stirred at a room temperature for 1 hour. […] The resulting solutions were stirred at a room temperature for 1 hour. After the stirring, absorbance of the stirred solutions at 525 nm was measured.
Values below the “after” column are IC50 obtained in a case where the sugar chain was added to an aggregate of the lectin and the colloid solution. Values below the “before” column are IC50 obtained in a case where the colloid solution was added to the admixture of the lectin and the sugar chain.

[2] = biological target: RCA120 (Ricinus communis, UniProt P06750); assay type: binding, caster bean; set-up: key to Degree of dissociation: ⊚: lectin was completely dissociated; ◯: lectin was almost completely dissociated; Δ: lectin was dissociated with residual sugar-protein interactant (aggregate); X: the lactose-RCA120 interactant kept in aggregated state, and lectin was not dissociated therefrom
[3] = biological target: T1, ConA; assay: Dissociation of ConA from maltose-ConA interactant by added glucose; assay type: binding; conditions: visual observation
Procedure: 100 μl of PBS-T (0.05%) solution containing ConA at 250 μg/ml was placed in an Eppendorf tube. […] Then, a mixture solution was vortexed for at least 10 seconds. Thereafter, the resulting mixture solution was left for approximately 2 hours, and a sugar-protein interactant was precipitated out of the mixture solution by centrifugation. Then, supernatant thereof was removed, and the sugar-protein interactant was washed with PBS-T (0.05%) solution and water several times. After the washing, 100 μl of 200 mM glucose aqueous solution was added to the sugar-protein interactant, and the resulting mixture solution was left for approximately 1 hour.
First, 25 μl of PBS-T (0.05%) solution containing RCA120 at 250 μg/ml was placed in an Eppendorf tube. To the solution was added 25 μl of the colloid solution of lactose-immobilized gold nanoparticles which was prepared in Example 4. Then, a mixture solution was vortexed for at least 10 seconds. Thereafter, the resulting mixture solution was left for approximately 2 hours, and a sugar-protein interactant (lactose-RCA interactant) was precipitated out of the mixture solution by centrifugation. Then, supernatant thereof was removed, and the sugar-protein interactant was washed with PBS-T (0.05%) solution and water several times. […] The results were evaluated by visual observation and UV-Vis measurement. […]

| Structure (SMILES) | IC50 ([1]; read-out: IC50 after) | IC50 ([1]; read-out: IC50 before) | Degree of dissociation [2] | concentration of added sugar solution at which excellent RCA120 dissociation was observed [2] | concentration of added sugar solution at which excellent ConA dissociation was observed [3] |
| --- | --- | --- | --- | --- | --- |
| CC(=O)N[C@H]1C(O)O[C@H](CO)[C@@H](O)[C@@H]1O (some centres unmarked) [GlcNAc, N-acetyl glucosamine] | 80.1 mM | 22.9 mM |  |  |  |
| O=C[C@H](O)[C@@H](O)[C@@H](O)[C@H](O)CO [galactose] |  |  | Δ and X and ◯ | ≥ 25 mM | ≥ 50 mM |
